Measurements: PubChem BioAssay (NCI)
Values joined by “and” are separate entries in the source; they are usually repeats but may differ in a detail not shown here. Identical values can stand only once.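 All cell lines were grown in 96-well plates and treated with compound for 48 hours. At the GI50, growth is halved. TGI is the concentration that stops growth completely.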

What was measured:
Assay in all cases: growth of human tumour cells (NCI), 48 h
OVCAR-5 ovarian = system: OVCAR-5 ovarian
A498 renal = system: A498 renal
HCT-116 colon = system: HCT-116 colon
HL-60(TB) leukemia = system: HL-60(TB) leukemia
OVCAR-4 ovarian = system: OVCAR-4 ovarian
IGROV1 ovarian = system: IGROV1 ovarian
TK-10 renal = system: TK-10 renal
UACC-62 melanoma = system: UACC-62 melanoma
SNB-75 CNS = system: SNB-75 CNS
OVCAR-3 ovarian = system: OVCAR-3 ovarian

Structure (SMILES) | GI50 (OVCAR-5 ovarian) | TGI (OVCAR-5 ovarian) | GI50 (A498 renal) | TGI (A498 renal) | GI50 (HCT-116 colon) | TGI (HCT-116 colon) | GI50 (HL-60(TB) leukemia) | TGI (HL-60(TB) leukemia) | GI50 (OVCAR-4 ovarian) | TGI (OVCAR-4 ovarian) | GI50 (IGROV1 ovarian) | TGI (IGROV1 ovarian) | GI50 (TK-10 renal) | TGI (TK-10 renal) | GI50 (UACC-62 melanoma) | TGI (UACC-62 melanoma) | GI50 (SNB-75 CNS) | TGI (SNB-75 CNS) | GI50 (OVCAR-3 ovarian) | TGI (OVCAR-3 ovarian)
O=C1Nc2ccc(F)c3c(OCCO)cc(-c4ccc[nH]4)c1c23 | 2.35 µM | 10 µM | 0.896 µM | 4.24 µM | 1.15 µM | 20.4 µM | 1.14 µM | 7.44 µM | 1.44 µM | 12.1 µM | 1.86 µM | 10.4 µM | 1.41 µM | 6.42 µM | 2.78 µM | 6.33 µM | 1.52 µM | 7.02 µM | 3.59 µM | 9.7 µM
Cn1ncc2c(Nc3ccc(Br)cc3)nc(Nc3ccc(Br)cc3)nc21 | 11.3 µM | 24.1 µM | 2.68 µM | 9.9 µM | 3.22 µM | 11.9 µM | 1.44 µM | 5.85 µM | 3.51 µM | 16.1 µM | 3.22 µM | 16.7 µM | 4.75 µM | 19 µM | 2.32 µM | 6.82 µM | 2.23 µM | 12.5 µM | 3.95 µM | 12.3 µM
CS(=O)(=O)c1nccc(-c2c(-c3cccc(OCc4ccc(F)cc4)c3)nc3sccn23)n1 | > 100 µM | > 100 µM | 18.2 µM | 65.2 µM | 5.65 µM | > 100 µM | 3.43 µM | > 29.3 µM | 11.4 µM | > 100 µM | 11.2 µM | > 100 µM | > 94.2 µM | > 100 µM | 17.5 µM | > 100 µM | > 39.5 µM | > 83.1 µM | 19 µM | > 100 µM
Cc1c(Cl)cccc1NC(=O)CC1Sc2ccccc2NC1=O (stereo not drawn) |  | > 100 µM |  | 38.2 µM and 37.5 µM |  | 46.2 µM and 31.4 µM |  | 54.2 µM and 49.3 µM |  | 40 µM and 40.4 µM | 20 µM and 45.1 µM | 65 µM and > 100 µM | 20.8 µM and 48.2 µM | 49.6 µM and > 100 µM | 15.2 µM and 38.6 µM | 77.5 µM and > 100 µM | 4.95 µM and 14.5 µM | 19 µM and 36.5 µM |  | 31.2 µM and 41.9 µM
COc1ccc(CNc2cc(OC)cc(OC)c2)cc1 | > 78.1 µM | > 100 µM | > 100 µM and 14.7 µM | > 100 µM |  | > 100 µM |  | > 100 µM |  | > 100 µM |  | > 100 µM |  | > 100 µM |  | > 100 µM |  | > 100 µM and 96.8 µM |  | > 100 µM
O=S(=O)(c1cccc(C(F)(F)F)c1)N1c2ccccc2-n2cccc2C1c1cccnc1 (stereo not drawn) |  | > 75.1 µM |  | > 64 µM |  | > 52 µM |  | 28.3 µM |  | > 48.4 µM |  | > 100 µM |  | > 85.1 µM |  | > 59.5 µM |  | > 100 µM |  | > 55 µM
CN(C)CCNC(=O)c1ccc2ccc3cccnc3c2n1 |  | 47.8 µM |  | > 57.4 µM |  | 27.2 µM |  | > 84 µM |  | > 69.2 µM |  | > 100 µM |  | 62.8 µM |  | 30.4 µM |  | 34.4 µM |  | 99 µM
CCCC[C@@H]1NC(=O)[C@H](CCCCN)NC(=O)[C@H](CCCNC(=N)N)NC(=O)[C@H](CC(C)C)NC(=O)[C@@H](NC(=O)[C@H](Cc2cccc(Cl)c2)NC(=O)[C@@H]2CCCN2C(=O)[C@@H](NC(C)=O)C(C)C)CCSSC[C@@H](C(=O)N[C@@H](CCCCN)C(=O)N2CCC[C@H]2C(=O)N2CCC[C@H]2C(=O)N[C@@H](CCC(=O)O)C(N)=O)NC(=O)[C@H](Cc2ccccc2)NC(=O)[C@H](CO)NC(=O)[C@H](C)NC(=O)[C@@H]2CCCN2C1=O | > 50 µM | > 50 µM | > 50 µM | > 50 µM | > 50 µM | > 50 µM | > 50 µM | > 50 µM | > 50 µM | > 50 µM | > 50 µM | > 50 µM | > 50 µM | > 50 µM | > 50 µM | > 50 µM | > 50 µM | > 50 µM | > 50 µM | > 50 µM
CC1=CC[C@@H]2[C@@H](CC[C@@]2(C)O)C(C)(C)[C@H]1CC[C@@H]1[C@@]2(C)CCC(=O)C(C)(C)O[C@@H]2CC[C@]1(C)O |  | > 100 µM |  | 73 µM |  | 42 µM |  | 35 µM |  | > 100 µM |  | 76.5 µM |  | > 100 µM |  | 34.9 µM |  | > 100 µM |  | > 100 µM
O=c1/c(=C/c2cccc3ccccc23)sc2nc3ccccc3n12 |  | > 100 µM |  | > 100 µM |  | > 100 µM |  | > 100 µM |  | > 100 µM |  | > 100 µM |  | > 100 µM |  | > 100 µM |  | > 100 µM |  | > 100 µM
OCCN1CCN(CCCN2c3ccccc3Sc3ccc(C(F)(F)F)cc32)CC1 | 5.68 µM and 11.2 µM and 11.5 µM | 12.2 µM and 25.3 µM and 25.1 µM | 2.28 µM and 9.65 µM and 10.4 µM | 10.3 µM and 23.4 µM and 28.1 µM | 1.55 µM | 5.52 µM | 2.52 µM and 11.5 µM and 2.06 µM | 9.06 µM and 29.3 µM and 5.56 µM | 5.29 µM and 10.8 µM and 8.5 µM | 11.2 µM and 23.1 µM and 20.9 µM | 2.57 µM and 11.3 µM and 10.2 µM | 9.32 µM and 28.5 µM and 30.1 µM | 1.48 µM and 8.22 µM and 6.59 µM | 4.28 µM and 21.3 µM and 20.1 µM | 0.824 µM and 2.48 µM and 2.08 µM | 1.62 µM and 6.83 µM and 4.44 µM | 2.04 µM and 10 µM and 6.62 µM | 9.16 µM and 22.4 µM and 21.8 µM | 4.34 µM and 12.4 µM | 10.6 µM and 25.5 µM
C[C@@H]1O[C@@H](O[C@H]2C[C@@H](O)[C@]3(CO)C4C(CC[C@]3(O)C2)[C@@]2(O)CC[C@H](C3=CC(=O)OC3)[C@@]2(C)C[C@H]4O)[C@H](O)[C@H](O)[C@H]1O (stereo partly drawn) | 0.0606 µM | 0.127 µM | 0.0387 µM | 0.262 µM | 0.0174 µM | 0.056 µM | 0.013 µM | 0.0318 µM | 0.0116 µM | 0.0308 µM | 0.0273 µM | 0.23 µM | 0.0148 µM | 0.0384 µM | 0.0819 µM | 0.151 µM | 0.0277 µM | 0.0946 µM | 0.0168 µM | 0.0487 µM
COC1/C=C/O[C@@]2(C)Oc3c(C)c(O)c4c(O)c(cc(O)c4c3C2=O)NC(=O)/C(C)=C\C=C\[C@H](C)C(O)[C@@H](C)[C@@H](O)[C@@H](C)[C@H](OC(C)=O)[C@@H]1C (stereo partly drawn) |  | 80.1 µM |  | 96.9 µM | 12.2 µM and 12.5 µM | 25.4 µM and 26.1 µM | 6.07 µM and 5.19 µM | 27.4 µM and 18 µM | 16 µM | 30.6 µM and 28.3 µM | 16 µM | 29.5 µM and 56.3 µM |  | 32.1 µM and 39.1 µM | 14.8 µM | 28 µM and 42.2 µM | 18.1 µM | 32.3 µM and 119 µM | 2.6 µM and 8.56 µM | 15.1 µM and 22.9 µM
